The numbers were not newly measured in US9314478B2, “Method of making an anhydrous, fat soluble, chewable drug delivery formulation” (Argenta Manufacturing Limited, priority 2013, dated 2016), which cites them from elsewhere.

On to `CN1CCCN=C1/C=C/c1cccs1` [Pyrantel], for which the Aqueous solubility entry was “Poor”.
In the case of `O=C(C1CCCCC1)N1CC(=O)N2CCc3ccccc3C2C1` (stereo not shown) [Praziquantel], the Aqueous solubility result is “Soluble”.
As to Spinosad, the Aqueous solubility entry is on record as “Soluble”.
Consider Milbemycin oxime, for which the Aqueous solubility entry was “Poor”.
In the case of `Cc1cnc(NC(=O)C2=C(O)c3ccccc3S(=O)(=O)N2C)s1` [Meloxicam], the Aqueous solubility entry is “Poor”.
For `CC(C(=O)O)c1ccc2c(c1)[nH]c1ccc(Cl)cc12` (stereo not shown) [Carprofen], the Aqueous solubility entry is reported as “Poor”.
Consider `CCCOc1ccc2nc(NC(=O)OC)[nH]c2c1` [Oxibendazole], for which the Aqueous solubility entry is on record as “Poor”.
